Measured values taken from patent US20230012172A1, “COMPOSITIONS AND METHODS FOR TREATMENT OF PLATINUM-BASED CHEMOTHERAPEUTIC RESISTANT TUMORS” (The George Washington University, priority 2020, published 2023).

Key:
[1] = tested on: PE023 cells; test: Cell viability assay (SRB) in PE023 cells; assay type: cell-based
Procedure: (§1) Cell culture and resistance cell line establishment. IGROV1 cells, U2OS (HTB-96; ATCC), HEK293T (CRL-11268; ATCC) and SKOV3 cells (HTB-77; ATCC) were cultured at 37° C. in DMEM with 10% Fetal Bovine Serum (FBS). PEO1 (10032308; Sigma-Aldrich), PEO4 (10032309; Sigma-Aldrich), PEO14 (10032311; Sigma-Aldrich) and PE023 cells (10032313; Sigma-Aldrich) were cultured at 37° C. in RPMI-1640 with 10% FBS. OV90 (CRL-11732; ATCC) was cultured in medium containing 1:1 MCDB 105 (Sigma) and M199 (Sigma) supplemented with 10% FBS at 37 ° C. All the cells were cultured at in a humidified incubator with 5% CO2 atmosphere. Cisplatin resistant cell lines, including SKOV3 CR, IGROV1 CR and OV90 CR, were generated using an approach similar to that reported in Zhou et al., (2018) Oncogene 37, 3981-3997, the disclosure of which is incorporated herein in its entirety.
(§2) Cell viability assay. Cells were seeded at 3,000 cells/well in 96-well plates were treated with drugs, followed by incubation for 48 hours, after which cell viability was detected using Sulforhodamine B (SRB) assay (64). Absorbance at 510 nm was detected using a SpectraMax Reader (Molecular Devices) and analyzed with SoftMax Analysis Software (Molecular Devices). Combinational index (CI) values were calculated using CompuSyn software.

[2] = tested on: SKOV3 CR cells; test: Cell viability assay (SRB) in SKOV3 CR cells; assay type: cell-based; conditions: SKOV3 CR cells
Procedure: as §1, with “Sigma-Aldrich) and PE023 cells (10032313;” left out, “ATCC) was cultured in medium containing 1:1 MCDB 105 (Sigma) and M199 (Sigma) supplemented with 10% FBS at 37 ° C.” left out, “entirety. Cell viability assay. Cells were seeded at 3,000 cells/well in 96-well plates were treated with drugs, followed by incubation for 48 hours, after which cell viability was detected using Sulforhodamine B (SRB) assay (64). Absorbance at 510 nm was detected using a SpectraMax Reader (Molecular Devices) and analyzed with SoftMax Analysis Software (Molecular Devices). Combinational index (CI) values were calculated using CompuSyn software.” for “entirety.”

[3] = target: T1, SENP1 (Homo sapiens, UniProt Q9P0U3); test: Cellular thermal shift assay; conditions: IGROV1 cells, higher temperature
T1 sequence (Q9P0U3 1-644): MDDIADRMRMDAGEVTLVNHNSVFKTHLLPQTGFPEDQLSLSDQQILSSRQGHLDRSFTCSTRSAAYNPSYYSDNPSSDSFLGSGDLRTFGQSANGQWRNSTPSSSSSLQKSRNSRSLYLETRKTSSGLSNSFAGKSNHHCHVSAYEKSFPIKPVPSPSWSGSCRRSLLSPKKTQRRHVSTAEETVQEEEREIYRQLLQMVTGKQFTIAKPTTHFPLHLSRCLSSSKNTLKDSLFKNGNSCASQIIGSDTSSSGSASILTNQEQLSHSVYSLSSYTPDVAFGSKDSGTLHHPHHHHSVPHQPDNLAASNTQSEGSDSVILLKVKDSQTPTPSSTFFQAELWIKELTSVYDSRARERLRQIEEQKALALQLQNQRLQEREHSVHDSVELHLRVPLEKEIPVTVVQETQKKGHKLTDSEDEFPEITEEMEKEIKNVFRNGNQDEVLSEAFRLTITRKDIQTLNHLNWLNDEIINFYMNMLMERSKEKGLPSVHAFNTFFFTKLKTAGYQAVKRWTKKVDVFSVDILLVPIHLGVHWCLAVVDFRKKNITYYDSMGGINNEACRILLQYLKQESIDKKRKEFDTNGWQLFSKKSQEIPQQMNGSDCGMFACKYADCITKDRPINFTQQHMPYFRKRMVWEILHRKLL
Procedure: To determine whether UA binds to SENP1 directly, cellular thermal shift assays were performed in which a small molecule binds to a protein resulting in thermal stabilization of the protein.

[4] = target: T1, SENP1; test: Cell free thermal shift assay with recombinant SENP1; assay type: binding; parameters: GST (N); made in house; host or cells: E. coli implied (pGEX-4T1 vector; BL21 (DE3) is stated only for pET28a-JAK2)
[5] = tested on: IGROV1 CR cells; test: Cell viability assay (SRB) in IGROV1 CR cells; assay type: cell-based, human; conditions: 150 nM UA, IGROV1 CR cells
Procedure: as §1, §2

[6] = tested on: IGROV1 CR cells; test: IGROV1 CR xenograft in nude mice; assay type: in vivo; conditions: IGROV1 CR xenograft tumors
Procedure: To further evaluate the therapeutic potential of UA in combination with cisplatin in vivo, IGROV1 CR cells were subcutaneously implanted into nude mice to form platinum drug resistant ovarian tumors. The mice with these tumors were then treated with UA, cisplatin, or combination of both via intraperitoneal injection.
Animal experiments. Xenograft experiments were performed in 6-week female BALB/c athymic nude mice (Jackson Laboratory) by subcutaneously injecting 5×10^6 IGROV1 CR cells within 50% Matrigel gelatinous protein mixture (Corning). Mice were randomized to receive treatment after reached a minimum tumor volume of 150 mm^3. 4 groups of mice (5 mice per group) were treated intraperitoneally with vehicle, cisplatin (8 mg/kg/2day), UA (10 mg/kg/2 days) and combination of UA and cisplatin (10 mg/kg/2 day of UA +8 mg/kg/2 day of cisplatin) for 2 weeks. A minimum of 6 tumors per group were assessed. The tumor volume was calculated according to the formula: length×(width^2)/2.
Immunohistochemistry. Immunohistochemical (IHC) staining and scoring were performed similar to that previously described n Zhou et al., (2018) Oncogene 37, 3981-3997, the disclosure of which is incorporated herein in its entirety. The quantification of immunohistochemical staining was scored blindly at least by two independent observers.

Row | Compound | re-sensitization to cisplatin [1] | synergy with cisplatin (combination index) [1] | re-sensitization to cisplatin [2] | synergistic effects with cisplatin (combination index) [2] | SENP1 protein thermal stabilization versus DMSO [3] | thermal stabilization of recombinant SENP1 proteins [4] | CI value with cisplatin, cell survival [5] | expression of pSTAT3 in tumor samples (IHC) [6]
1 | CC1(C)CC[C@]2(C(=O)O)CC[C@]3(C)C(=CC[C@@H]4[C@@]5(C)CC[C@H](O[C@@H]6O[C@H](C(=O)O)[C@@H](O)[C@H](O[C@@H]7OC[C@@H](O)[C@H](O)[C@H]7O)[C@H]6O)C(C)(C)[C@@H]5CC[C@]43C)[C@@H]2C1 [Mc, Momordin Ic] | re-sensitized | synergy | re-sensitized | synergy |  |  |  | 
2 | C[C@H]1[C@H](C)CC[C@]2(C(=O)O)CC[C@]3(C)C(=CC[C@@H]4[C@@]5(C)CC[C@H](O)C(C)(C)[C@@H]5CC[C@]43C)[C@H]12 [UA, ursolic acid] |  |  |  |  | stabilized | stabilized | < 1 | suppressed
